Values joined by “and” are separate entries in the source; they are usually repeats but may differ in a detail not shown here. Identical values can stand only once. “Also recorded” adds a separate entry of the source. Like-named read-outs stand apart in the source and are kept apart here.
Tests used:
TSPO [1] = conditions: cited from earlier work
[2] = system: experimental autoimmune encephalomyelitis mouse model; conditions: cited from earlier work
[3] = system: γ‐aminobutyric acid‐a receptor; conditions: cited from earlier work
[4] = biological target: γ‐aminobutyric acid‐a receptor; conditions: rodent brain; cited from earlier work
[5] = Plasma protein binding by equilibrium dialysis; conditions: plasma spiked at 1 μM, 37°C, 4 hours, mean (SEM)
Experimental: Plasma protein binding was measured by equilibrium dialysis using 96‐well plate blocks with 2 compartments separated by a vertical cylinder of dialysis membrane (molecular weight cut off ~8000 Da; ThermoFisher Scientific). […] The unit was covered and incubated at 37°C on an orbital shaker for 4 hours. After incubation, samples from both plasma (bound) chamber and the buffer (free) chamber were taken and matrix‐matched by addition of the alternative blank matrix. Acetonitrile containing internal standard was added to all samples. […] The ratio of responses in free to bound samples equates to the free fraction.

[6] = Solubility limitation of etifoxine in binding assay; type: physicochemical; conditions: assay buffer pH 7.4
Experimental: The specific binding component was determined using unlabelled PK11195 (10µM). Following incubation, assays were terminated via filtration through Whatman GF/B filters, followed by 3 x 1 ml washes with ice-cold wash buffer (50mM Tris Base, 1.4mM MgCl2, pH 7.4, 4 °C). Whatman GF/B filters were pre-incubated with 0.05% polyethyleneimine (60min) before filtration. Scintillation fluid (4ml/vial, Perkin Elmer Ultima Gold MV) was added and vials counted on a Perkin Elmer Tricarb 2900 liquid scintillation counter. For each donor, each point was performed in quadruplicate. Ki (nM) values were determined using GraphPad Prism 8.1 software (GraphPad Software Inc, USA).

TSPO [7] = biological target: TSPO (Homo sapiens, UniProt P30536); assay: Competition radioligand binding with [3H]PK11195 in human brain membranes
TSPO (Homo sapiens, UniProt P30536), sequence (P30536 2-169): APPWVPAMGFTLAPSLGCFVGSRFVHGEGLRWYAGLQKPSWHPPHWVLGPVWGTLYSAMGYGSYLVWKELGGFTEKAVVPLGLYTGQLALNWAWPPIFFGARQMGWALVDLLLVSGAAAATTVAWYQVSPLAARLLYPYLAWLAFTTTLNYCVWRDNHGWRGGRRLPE
Experimental: The assay was terminated via filtration through Whatman GF/B filters. Scintillation fluid (4 mL/vial, Perkin Elmer Ultima‐Gold MV) was added and vials counted on a Perkin Elmer Tricarb 2900 liquid scintillation counter.
Tissue was obtained from 8 donors from the UK Multiple Sclerosis (MS) Tissue Bank at Imperial College. […] The tissue was stored at -80 °C until use.
Tissue blocks were homogenised in 10 times weight for volume (w/v) buffer (0.32mM sucrose, 5mM Tris base, 1mM MgCl2, pH 7.4, 4 °C). Homogenates were centrifuged (32,000g, 20min, 4 °C) followed by removal of the supernatant. Pellets were re-suspended in at least 10 times w/v buffer (50mM Tris base, 1mM MgCl2, pH 7.4, 4 °C) followed by two washes by centrifugation (32,000g, 20min, 4 °C). Membranes were suspended in buffer (50mM Tris base, 1mM MgCl2, pH 7.4, 4 °C) at a protein concentration of approximately 4 mg protein/ml and aliquots were stored at -80 °C until use.
All competition data were analysed using the iterative non-linear regression curve fitting software supplied with GraphPad Prism 8.1. A single site competition model was fitted to the data using the least squares algorithm. […] Data are expressed as the mean ± standard error of the mean (SEM). The Student’s t-test (GraphPad Prism 8.1) was used to determine statistical significance.

[8] = Open-label clinical pharmacokinetic study of oral XBD173 and etifoxine in healthy volunteers (plasma LC-MSMS); type: in vivo, human; conditions: for AUC0‐4 h / Cmax / Tmax / AUC: 50 mg etifoxine single oral dose; for AUC: read-out: AUC0‐4 h
Experimental: This was a single centre, open‐label study enrolling 4 adult healthy volunteers (aged 35–65 y) irrespective of rs6971 genotype. Detailed inclusion and exclusion criteria are shown in the supplementary information. […] As a precaution, therefore, a long washout period was chosen. The first dose was taken at the clinical research facility and the participant was monitored for 4 hours. Subsequent doses were taken at home by the participant. On day 7, the participant returned for a final assessment. […] The PI of the study was Paul M. Matthews (DPhil, FRCP, FMedSci) who is an author on the manuscript.
Plasma samples for pharmacokinetic analysis were obtained on day 1 at 0.5, 1, 2, 3, 4 hours following the first dose. […] Plasma samples were stored at −20°C or lower until analysis. Plasma samples (25 μL) were prepared for analysis by protein precipitation with acetonitrile containing internal standard (tolbutamide; 200 μL) followed by mixing (150 rpm, 15 min) and centrifugation (1500 g, 15 min). The supernatant (50) μL was diluted with water (100 μL) and mixed (100 rpm, 15 min). […] Injection volume was 1 μL.

[9] = human, plasma, po, 50 mg, 50mg etifoxine single oral dose, Mean (SEM)
[10] = human, plasma, po, 50 mg, 50mg etifoxine single oral dose, participant 2
[11] = human, plasma, po, 50 mg, 50mg etifoxine single oral dose, participant 3
[12] = human, plasma, po, 50 mg, 50mg etifoxine single oral dose, participant 4
[13] = human, plasma, po, 50 mg, 50mg etifoxine single oral dose, participant 1
[14] = human, plasma, po, 50 mg, Median of 4 participants
[15] = human, plasma, po, 50 mg, participant 1
[16] = human, plasma, po, 50 mg, participant 2
[17] = human, plasma, po, 50 mg, participant 3
[18] = human, plasma, po, 50 mg, participant 4

CCNC1=Nc2ccc(Cl)cc2C(C)(c2ccccc2)O1 (centres unmarked) [etifoxine]
Binding affinity for TSPO (TSPO [1]; rodent heart): 22.5 µM
Binding affinity for TSPO (TSPO [1]; rodent kidney): 14 µM and 9 µM
Clinical scores [2]: improved clinical scores
Concentration above which pharmacodynamic actions at the receptor are elicited [3]: above 1 μM
IC50 [4]: ~6.7 µM
Fraction in plasma bound [5]: 99.71%
Plasma free fraction [5]: 0.29%
Highest concentration that could be studied due to limitations of solubility [6]: ≤ 30 µM
Ki (TSPO [7]; read-out: Affinity of etifoxine for TSPO estimated here, value used for the occupancy estimate): 7.6 µM
Ki (TSPO [7]; read-out: Estimated Ki for the whole population, single site binding curve, human brain tissue, 8 donors (4 HABs, 4 LABs), 95% CI 4.5–14.6 μM, competition curve did not fully plateau): 7.8 µM and ~7.8 µM
Ki (TSPO [7]; read-out: Mean Ki, human brain tissue, high affinity binders (HABs), n = 4, [3H]PK11195 0.3 nM): 7.6 ± 2.2 µM
AUC0‐4 h ([8]; plasma, Max of 4 participants): 83 ng·h/mL
AUC0‐4 h ([8]; plasma, Min of 4 participants): 59 ng·h/mL
Adverse events ([8]; 4 healthy volunteers, XBD173 90 mg once daily 7 days and etifoxine 50 mg TDS 7 days): No adverse events were reported
Accumulation after multiple doses ([8]; etifoxine 50 mg TDS for 7 days, day 7 vs day 1 plasma concentration): did not find evidence for significant etifoxine accumulation; also recorded: did not find evidence for drug accumulation
concentration at 30 min ([8]; human, plasma, po, 50 mg, 50mg etifoxine single oral dose, 30 mins, participant 2): 4 ng/mL
concentration at 60 min [8, 9]: 8.2 ng/mL
concentration at 60 min [8, 10]: 15.9 ng/mL
concentration at 60 min [8, 11]: 6.2 ng/mL
concentration at 60 min [8, 12]: 2.4 ng/mL
concentration at 120 min [8, 9]: 29.8 ng/mL
concentration at 120 min [8, 13]: 15.5 ng/mL
concentration at 120 min [8, 10]: 33.4 ng/mL
concentration at 120 min [8, 11]: 39.4 ng/mL
concentration at 120 min [8, 12]: 30.7 ng/mL
concentration at 180 min [8, 9]: 22.9 ng/mL
concentration at 180 min [8, 13]: 24.2 ng/mL
concentration at 180 min [8, 10]: 12.3 ng/mL
concentration at 180 min [8, 11]: 27.1 ng/mL
concentration at 180 min [8, 12]: 27.9 ng/mL
concentration at 240 min [8, 9]: 18 ng/mL
concentration at 240 min [8, 13]: 22.7 ng/mL
concentration at 240 min [8, 10]: 9.2 ng/mL
concentration at 240 min [8, 11]: 20.1 ng/mL
concentration at 240 min [8, 12]: 20.1 ng/mL
Cmax [8, 14]: 32 ng/mL
Tmax [8, 14]: 2 h
Cmax [8, 15]: 24 ng/mL
Tmax [8, 15]: 3 h
Cmax [8, 16]: 33 ng/mL
Tmax [8, 16]: 2 h
Cmax [8, 17]: 39 ng/mL
Tmax [8, 17]: 2 h
Cmax [8, 18]: 31 ng/mL
Tmax [8, 18]: 2 h
AUC ([8]; human, plasma, po, 50 mg, plasma, Median of 4 participants): 68 ng·h/mL
AUC ([8]; human, plasma, po, 50 mg, plasma, participant 1): 59 ng·h/mL
AUC ([8]; human, plasma, po, 50 mg, plasma, participant 2): 64 ng·h/mL
AUC ([8]; human, plasma, po, 50 mg, plasma, participant 3): 83 ng·h/mL
AUC ([8]; human, plasma, po, 50 mg, plasma, participant 4): 71 ng·h/mL

Source: PMC9545781 (British Journal of Clinical Pharmacology, 2022)
